Laboratory results reported in patent US8436028B2, “CETP inhibitors derived from benzoxazole arylamides” (Merck Sharp & Dohme Corp, priority 2007, dated 2013).

Target: T1, recombinant human CETP (Homo sapiens, UniProt P11597)
T1 construct: made in house; host or cells: CHO cells
T1 sequence (P11597 18-493): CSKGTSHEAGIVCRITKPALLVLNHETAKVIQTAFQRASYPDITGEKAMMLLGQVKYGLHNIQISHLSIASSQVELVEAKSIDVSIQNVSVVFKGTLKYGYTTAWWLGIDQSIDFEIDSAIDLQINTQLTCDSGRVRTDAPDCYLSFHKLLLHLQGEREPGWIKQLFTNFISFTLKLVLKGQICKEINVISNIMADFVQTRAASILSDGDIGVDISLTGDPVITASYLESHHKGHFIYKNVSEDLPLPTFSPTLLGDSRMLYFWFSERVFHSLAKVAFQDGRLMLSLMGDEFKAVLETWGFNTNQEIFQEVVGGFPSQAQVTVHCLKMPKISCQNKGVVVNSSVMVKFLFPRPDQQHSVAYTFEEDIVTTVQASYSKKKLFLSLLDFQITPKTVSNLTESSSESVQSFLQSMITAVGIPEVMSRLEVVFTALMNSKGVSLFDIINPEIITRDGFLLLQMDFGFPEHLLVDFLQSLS
Test: CETP assay, CE transfer reaction (BODIPY-CE fluorescence, continuous)
Assay type: biochemical
Settings: 3% human serum, 25° C., read-out: IC50 value as measured for the CE transfer reaction
Experimental: An in vitro continuous assay for determining IC50's to identify compounds that are CETP inhibitors was performed based on a modification of the method described by Epps et al. employing BODIPY®-CE as the cholesteryl ester lipid donor and BODIPY®-TG as the triglyceride lipid donor. See Epps et al. (1995) Method for measuring the activities of cholesteryl ester transfer protein (lipid transfer protein), Chem. Phys. Lipids. 77, 51-63.
Particles used in the assay were created from the following materials by probe sonication essentially as described by Epps et al. Synthetic cholesteryl ester (CE) donor HDL particles contained DOPC (Dioleoyl Phosphatidyl Choline), BODIPY®-CE (Molecular Probes C-3927), triolein (a triglyceride), dabcyl dicetylamide, (a non-diffusable quencher molecule to reduce background fluorescence) and apoHDL. Synthetic triglyceride (TG) donor HDL particles contained DOPC, BODIPY®-TG, and apoHDL. BODIPY®-TG was synthesized at room temperature from diolein and the BODIPY containing fatty acid analog 4,4-difluoro-5-(2-thienyl)-4-bora-3a,4a-diaza-s-indacene-3-dodecanoic acid (Molecular Probes) in methylene chloride in the presence of dicyclohexyl carbodimide. Dabcyl dicetylamide was made by heating dabcyl n-succinimide with dicetylamine in DMF at 95° C. overnight in the presence of diisopropylamine catalyst. Native lipoproteins from human blood were used as acceptor particles. Particles having a density less than 1.063 g/ml were collected by ultracentrifugation. These particles include VLDL, IDL, and LDL. Particle concentrations were expressed in terms of protein concentration as determined by BCA assay (Pierce, USA). Particles were stored at 4° C. until use.
Assays were performed in Dynex Microfluor 2 U-bottom black 96-well plates (Cat #7205). An assay cocktail containing CETP, 1×CETP buffer (50 mM Tris, pH 7.4, 100 mM NaCl, 1 mM EDTA), 3% human serum, and half the final concentration of acceptor particles was prepared, and 100 μL of the assay cocktail was added to each well of the plate. Test compounds in DMSO were added in a volume of […]. The plate was mixed on a plate shaker and then incubated at 25° C. for 1 hour. A second assay cocktail containing donor particles, the remaining acceptor particles and 1×CETP buffer was prepared. 47 μL of the second assay cocktail was added to the reaction wells to start the assay. Assays were performed in a final volume of 150 μL. CE transfer reactions were performed as follows: final concentrations of materials were: 2.5 ng/μL CE donor particles, 7.5 ng/μL acceptor particles (each expressed by protein content), 1×CETP buffer, 14-30 nM recombinant human CETP (expressed in CHO cells and partially purified), and up to 2% DMSO when testing compounds; reactions were followed in a fluorescence plate reader (Molecular Devices Spectramax GeminiXS) set for a 45 minute kinetic run at 25° C. which read the samples every 45 sec at Ex=480 nm, Em=511 nm, with a cutoff filter at 495 nm, photomultiplier tube setting of medium, calibration on, and 6 reads/well. TG transfer reactions were performed as described above with the exception that 2.5 ng/uL TG donor particles were used. TG transfer was measured at an excitation wavelength of 538 nm while reading emission at 568 nm every 45 sec for 45 min at 37° C. with a cutoff filter at 550 nm.
Data were evaluated by obtaining an initial rate, expressed in relative fluorescence units per second, for the pseudolinear portion of the curve, often 0-500 or 1000 sec. Comparison of the rates of samples with inhibitors to an uninhibited (DMSO only) positive control yielded a percent inhibition. A plot of percent inhibition vs. log of inhibitor concentration, fit to a Sigmoidal 4 parameter equation was used to calculate […].

Compound	IC50
CC(C)c1cc(C#N)cc2nc(-c3ccc(C(=O)NC[C@H]4CC[C@H](CC(=O)Nc5cc(C(F)(F)F)ccn5)CC4)cc3)oc12 [Example 44, 4-(5-Cyano-7-isopropyl-1,3-benzoxazol-2-yl)-N-{[trans-4-(2-oxo-2-{[4-(trifluoromethyl)pyridin-2-yl]amino}ethyl)cyclohexyl]methyl}benzamide]	12 to 41 nM
CC(C)c1cc(C#N)cc2nc(-c3ccc(C(=O)NC[C@H]4CC[C@H](CCOC(C)(C(F)(F)F)C(F)(F)F)CC4)cc3)oc12 [Example 45, 4-(5-Cyano-7-isopropyl-1,3-benzoxazol-2-yl)-N-[(trans-4-{2-[2,2,2-trifluoro-1-methyl-1-(trifluoromethyl)ethoxy]ethyl}cyclohexyl)methyl]benzamide]	12 to 41 nM
CC(C)c1cc(C#N)cc2nc(-c3ccc(C(=O)NCC4CC=C(Cc5ccc(C(F)(F)F)cc5)CC4)cc3)oc12 (stereo not shown) [Example 47, 4-(5-Cyano-7-isopropyl-1,3-benzoxazol-2-yl)-N-({4-[4-(trifluoromethyl)benzyl]cyclohex-3-en-1-yl}methyl)benzamide]	12 to 41 nM
CC(C)c1cc(C#N)cc2nc(-c3ccc(C(=O)NCC4(c5ccccc5)CCCCC4)cc3)oc12 [Example 48]	12 to 41 nM
CC(C)c1cc(C#N)cc2nc(-c3ccc(C(=O)NC[C@H]4CC[C@H](c5ccc(C(F)(F)F)cc5)CC4)cc3)oc12 [Example 53]	12 to 41 nM
CC(C)c1cc(C#N)cc2nc(-c3ccc(C(=O)NC[C@H]4CC[C@@H](c5ccc(C(C)(C)C)cc5)CC4)cc3)oc12 [Example 64]	12 to 41 nM
CC(C)c1cc(C#N)cc2nc(-c3ccc(C(=O)NC[C@H]4CC[C@H](c5ccc(C(C)(C)C)cc5)CC4)cc3)oc12 [Example 65]	12 to 41 nM
Cc1ccc2c(c1)cc(C1=CCC(CNC(=O)c3ccc(-c4nc5cc(C#N)cc(C(C)C)c5o4)cc3)CC1)n2C(=O)OC(C)(C)C (stereo not shown) [Example 76]	12 to 41 nM
CC(C)c1cc(C#N)cc2nc(-c3ccc(C(=O)NC[C@H]4CC[C@H](c5cc6ccccc6n5C)CC4)cc3)oc12 [Example 81]	12 to 41 nM
CC(C)c1cc(C#N)cc2nc(-c3ccc(C(=O)NC[C@H]4CC[C@H](c5cc6ccccc6o5)CC4)cc3)oc12 [Example 82]	12 to 41 nM
